Results on 68 compounds are retold here after PubChem BioAssay AID179 (DTP/NCI, 2004).

This assay concerns CEM cells HIV-1 protection, formazan growth assay. Briefly: NCI AIDS Antiviral Assay. As to conditions: for IC50: measured here: growth of uninfected CEM cells. In short, it runs like this: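 Protection of CEM cells against HIV-1 measured as cell growth via soluble formazan read-out, with five concentrations tested on both infected and uninfected cells; failure to protect may reflect toxicity.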

Active and inactive are the calls of the source.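 The calls were made as follows: active = compounds giving half or more protection of infected cells from virus-caused growth loss, again on retest; inactive = the rest.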 Where a SMILES comes first, the peptide text is derived from it. A value given as a limit tells only on which side of the number the result lay.

Turning to `C=C(C)[C@@H]1CC[C@@H](C)C[C@H]1OC(C)=O`, the EC50 (usually the concentration at which the effect is half-maximal) is greater than 200 µM and the IC50 (commonly the concentration that gives 50% inhibition) was greater than 200 µM.

`Cc1cc2c(=O)c3ccccc3oc2c(C#N)c1C`: the EC50 was greater than 20 µM and the IC50 was greater than 20 µM. For the compound `COc1ccc(C(=O)CC(=O)c2ccc3ccccc3n2)c(O)c1OC`, the EC50 was greater than 200 µM and the half-maximal inhibitory concentration (IC50) stood at 12.9 µM.

With `Clc1ccccc1/C=C\C1(c2ccccc2)OCCO1`, the EC50 was greater than 200 µM and the concentration for half-maximal inhibition (IC50) amounted to 10.5 µM. For `CC1(C)S[C@@H]2[C@H](NC(=O)C3(N)CCCC3)C(=O)N2[C@H]1C(=O)O` the same measures were greater than 200 µM and greater than 200 µM. For the compound `O=S(Cc1ccccc1)OOCCCCOS(=O)OCc1ccccc1` (stereo not given), the EC50 is greater than 200 µM and the IC50 was determined as 4.17 µM.

For `COc1cc2c(c(OC)c1OC)-c1ccc(OC)c(=O)cc1[C@@H](NC(=O)c1ccccc1)CC2`, the EC50 was greater than 0.2 µM and the IC50 turned out to be 0.00339 µM. Taken in the same sequence, the figures for `C=CC1(C)CCC2C(=CCC3C(C)(COC4OC(CO)C(O)C(O)C4O)C(O)CCC23C)C1` (stereo not given) were greater than 200 µM and greater than 100 µM. For `CCC1=C(C)c2cc3[n-]c(cc4nc(c(C=O)c5[n-]c(cc1n2)c(C)c5CC)C(C)=C4CC)c(C)c3CC.[Ni+2]` the same measures were greater than 50.1 µM and greater than 50.1 µM. `CC1=NN(C(=O)Cc2ccccc2)C(=O)/C1=C\c1ccco1`: the EC50 was greater than 64.6 µM and the half-inhibitory concentration (IC50) was greater than 64.6 µM. Consider `O=C1NC(=S)S/C1=C\c1ccc2c(c1)OCO2`, for which the EC50 is greater than 200 µM and the concentration for half-maximal inhibition (IC50) came out at 85.1 µM. Taken in the same sequence, the figures for `COc1ccc(/C=C2\CCCc3ccccc3C2=O)cc1` were greater than 200 µM and 0.145 µM.

With `CCOC(=O)c1ccc(CS(=O)(=O)c2ccc(OC)cc2)cc1`, the EC50 is greater than 56.2 µM and the IC50 was greater than 56.2 µM. As to `Nc1ccc(C(=Nc2ccccc2)c2ccc(N)cc2)cc1`, the outcome was inactive. On to `O=C(CSc1nc(-c2ccccc2)c(-c2ccccc2)[nH]1)N/N=C/c1ccc([N+](=O)[O-])cc1`, for which the EC50 is greater than 21.9 µM and the half-inhibitory concentration (IC50) came to 10 µM. Taken in the same sequence, the figures for `O=Nc1c(-c2ccccc2)[nH]oc1=O` were greater than 200 µM and 36.3 µM. Taken in the same sequence, the figures for `O=C1Nc2ccccc2NC(=O)C1(O)O` were greater than 200 µM and greater than 200 µM. `Cc1nn(-c2ccccc2)c(-c2ccccc2[N+](=O)[O-])c1CC#N`: the result was inactive. For `N#Cc1nc(Nc2ccc([N+](=O)[O-])cc2)sc1N`, the EC50 was greater than 38 µM and the IC50 was determined as 19.1 µM. Regarding `CCCS(=O)(=O)/C(=C(\c1ccc(Br)cc1)S(=O)(=O)CCC)c1ccc(Br)cc1`, the EC50 was greater than 2.63 µM and the IC50 was greater than 2.63 µM. `Cc1ccccc1-c1nc2ccc(N)nc2nc1N`: the outcome was inactive. Still for that read-out and setting: the entry for `Brc1cccc(C2SCc3nc4ccccc4n32)c1` (stereo not given) is “inactive”.

For `NC(=S)SC1=NNC2(C(=O)N1)c1ccccc1-c1ccccc12`, the EC50 is greater than 200 µM and the IC50 worked out at 20.9 µM. Regarding `O=C(Cc1ccccc1CCO)NCCc1ccccc1`, the EC50 was greater than 200 µM and the IC50 was greater than 200 µM. In the case of `O=C(Nc1ccc(C2=NCCN2)cc1)c1ccc(C(=O)Nc2ccc(C3=NCCN3)cc2)c(Br)c1`, the concentration giving a half-maximal response (EC50) is 8.32 µM and the IC50 amounted to 20.9 µM.

For the compound `COC(=O)c1c(C)oc2ccc(OC(C)=O)cc12`, the outcome was inactive. On to `Cc1cc(C)cc(N(C2=NCCS2)C2=NCCS2)c1`, for which the EC50 was greater than 200 µM and the 50% inhibitory concentration (IC50) is greater than 200 µM.

In the case of `NS(=O)(=O)c1ccc(NNc2c3ccccc3nc3c(C(=O)Nc4ccc(S(N)(=O)=O)cc4)cccc23)cc1`, the EC50 is greater than 200 µM and the half-maximal inhibitory concentration (IC50) is 10.5 µM. Regarding `CC1(C)OC2C(CO)OC(/N=C(\NC#N)Oc3ccccc3)C2O1` (stereo not given), the EC50 is greater than 200 µM and the half-maximal inhibitory concentration (IC50) is greater than 200 µM.

Regarding `Cc1cccc(C)c1NC(=O)C(=O)Cc1nc2ccccc2s1`, the result was inactive.

`CNc1ccccc1S(=O)(=O)c1ccccc1[N+](=O)[O-]`: the EC50 is 3.55 µM and the IC50 is 47.9 µM. Turning to `COc1c(OC2OC(CO)C(O)C(O)C2O)cc2c(c1OC)-c1ccc(SC)c(=O)cc1[C@@H](NC(C)=O)CC2` (stereo not given in full), the outcome was inactive. With `CCOc1ccc2nc3cc(N=Nc4ccc5c(N)c6cc(OCC)ccc6nc5c4)ccc3c(N)c2c1`, the EC50 is greater than 100 µM and the IC50 is 20.4 µM. Taken in the same sequence, the figures for `O=[N+]([O-])c1ncn(S(=O)(=O)c2cccc3cccnc23)n1` were greater than 200 µM and greater than 200 µM. Taken in the same sequence, the figures for `CC(CC(=O)O)CC(=O)OC[C@]12CC[C@@H](C(C)C)[C@@H]1[C@H]1CC[C@@H]3[C@@]4(C)CC[C@H](OC(=O)CC(C)CC(=O)O)C(C)(C)[C@@H]4CC[C@@]3(C)[C@]1(C)CC2` (stereo not given in full) were greater than 200 µM and 16.6 µM. For `O=C(Sc1ccccc1)n1nc(Cl)c2ccc([N+](=O)[O-])cc21` the same measures were greater than 200 µM and 43.7 µM. As to `CCOC(=O)C1OC12CCC(C(C)(C)C)CC2` (stereo not given), the EC50 was greater than 200 µM and the IC50 was determined as 191 µM. For `CCCCCCN(C(=O)Oc1ccccc1)C(C#N)c1ccccc1` (stereo not given) the same measures were greater than 200 µM and greater than 200 µM. For `OC(c1cnc2sccn12)C(F)(F)Sc1ccccc1` (stereo not given) the same measures were greater than 200 µM and 10.2 µM. Taken in the same sequence, the figures for `O=C(O)c1ccc(NC(=O)c2ccccc2[Se][Se]c2ccccc2C(=O)Nc2ccc(C(=O)O)cc2)cc1` were 13.8 µM and 18.6 µM. Take `S=C1CC(c2ccc(Sc3ccccc3)cc2)=Nc2ccccc2N1`: the EC50 was greater than 200 µM and the IC50 came out at 75.9 µM. Regarding `[N-]=[N+]=Nc1ccc(CNc2cc(=O)[nH]c(=O)[nH]2)cc1`, the EC50 was greater than 200 µM and the half-inhibitory concentration (IC50) was greater than 200 µM. For `Clc1ccc(-c2cc(=[N+]3CC[N+](=c4cc(-c5ccc(Cl)cc5)ss4)CC3)ss2)cc1`, the EC50 is 6.31 µM and the IC50 is 129 µM. Taken in the same sequence, the figures for `COc1ccc2c(ccc3c(C(=O)NCCCN(C)CCCNC(=O)c4cn(C)c5c4ccc4cc(OC)ccc45)cn(C)c32)c1` were greater than 200 µM and 1.15 µM. As for `OCCC(N1CCOCC1)C(O)(c1ccccc1)c1ccccc1` (stereo not given), the EC50 was greater than 200 µM and the IC50 is greater than 200 µM. Turning to `CC(C)C(NCc1c2ccccc2nc2ccccc12)C(=O)O` (stereo not given), the outcome was inactive.

In the case of `O=S(O)CCCCCSSCCCCSSCCCCCS(=O)O`, the outcome was inactive. Consider `Cc1ncc([N+](=O)[O-])n1CC(O)CCl` (stereo not given), for which the EC50 was greater than 200 µM and the IC50 is greater than 200 µM. In the case of `O=C(/C=C/c1ccc(O)c(O)c1)OCC(OC(=O)/C=C/c1ccc(O)c(O)c1)C(=O)O` (stereo not given), the EC50 is greater than 200 µM and the 50% inhibitory concentration (IC50) amounted to 28.2 µM. For the compound `CC1/C=C/C=C/CC/C=C/C=C/C=C/C=C/C(OC2OC(C)C(O)C(N)C2O)CC2OC(CC(O)C(O)CCC(O)CC(O)CC(O)CC(=O)OC(C)C(C)C1O)CC(O)C2C(=O)O` (stereo not given), the EC50 is greater than 50.1 µM and the half-maximal inhibitory concentration (IC50) worked out at 3.31 µM.

Consider `CCCCCCCCS(=O)(=O)O`, for which the EC50 is greater than 200 µM and the IC50 was greater than 200 µM.

For `NC(=O)CCCCC1CCSS1` (stereo not given), the EC50 was greater than 457 µM and the IC50 was greater than 457 µM. Consider `CC(C)(C)c1ccc2c(c1)OCc1n[nH]c(n1)COc1cc(C(C)(C)C)ccc1OCCOCCO2`, for which the EC50 is greater than 200 µM and the IC50 was found to be 7.24 µM. On to `CCOC(=O)C[P+](c1ccc(Cl)cc1)(c1ccc(Cl)cc1)c1ccc(Cl)cc1`, for which the EC50 is greater than 200 µM and the IC50 was determined as 18.6 µM. Taken in the same sequence, the figures for `CN(C)CCCNC(=O)c1cc(NC(=O)c2cc(NC(=O)c3cc(NC(=O)c4ccnc(C(=O)Nc5cc(C(=O)Nc6cc(C(=O)Nc7cc(C(=O)NCCCN(C)C)n(C)c7)n(C)c6)n(C)c5)c4)cn3C)cn2C)cn1C` were greater than 100 µM and greater than 100 µM.

As for `OC1(C2(O)c3ccccc3-c3ccccc32)c2ccccc2-c2ccccc21`, the EC50 was greater than 72.4 µM and the half-inhibitory concentration (IC50) was 41.7 µM. Taken in the same sequence, the figures for `O=c1ccn([C@@H]2C[C@H](CO)[C@H](O)C2)c(=O)[nH]1` were greater than 1100 µM and greater than 1100 µM. For `C#CC(C)(C)Oc1ccc2c(=O)c(-c3ccc(OC)c(OC)c3)coc2c1` the same measures were greater than 200 µM and 22.4 µM. Taken in the same sequence, the figures for `COc1ccc(N2C(=O)c3c(c4[nH]c5ccccc5c4c4ccc(C(C)(C)C)cc34)C2=O)cc1` were greater than 11.5 µM and greater than 11.5 µM. With `CC(NC(=O)CNC(=O)C(N)CO)C(=O)NC(CCC(=O)O)C(=O)NC(CCCCN)C(=O)NC(CO)C(=O)NC(CCCCN)C(=O)NC(CCCCN)C(=O)NC(CCCCN)C(=O)NCC(=O)NC(CO)C(=O)NC(CC(N)=O)C(=O)NC(C)C(=O)NC(Cc1cnc[nH]1)C(=O)NC(CO)C(=O)O` (stereo not given) (H-SGAEKSKKKGSNAHS-OH; configuration not given here), the result was inactive. On the same count and under the same terms, the entry for `COC(=O)C1Cc2c([nH]c3ccccc23)[C@H](CC(C)C)N1` (stereo not given in full) is “inactive”.

`CCOC(=O)O/C(=C\c1ccc(OC)cc1)c1c(OC(=O)OCC)n(C(=O)OCC)c2ccccc12`: the EC50 was greater than 200 µM and the IC50 came out at 6.61 µM.

Turning to `CC(=O)NC(CCCOC(C)=O)C(=O)NC(CCCOC(C)=O)C(=O)NC(CCCOC(C)=O)C(=O)NC(Cc1ccc([N+](=O)[O-])cc1)C(=O)NCC(=O)OCc1ccccc1` (stereo not given), the EC50 is greater than 200 µM and the IC50 is greater than 200 µM. Turning to `O=C1N=C(c2ccccc2)O/C1=C\c1ccccc1`, the EC50 is greater than 200 µM and the 50% inhibitory concentration (IC50) was greater than 200 µM. For the compound `OCC1OC(OC[C@H](COCc2ccccc2)OCc2ccccc2)C(O)C(O)C1O` (stereo not given in full), the EC50 is greater than 35.5 µM and the half-maximal inhibitory concentration (IC50) is greater than 35.5 µM. As for `COc1ccccc1N=Nc1c(-c2ccccc2)nn(C(=O)CC(=O)Nc2cccc(C)c2)c1-c1ccccc1`, the EC50 was greater than 35.5 µM and the 50% inhibitory concentration (IC50) was found to be 20.9 µM. For `O=[N+]([O-])c1cc([As](=O)(O)O)ccc1F` the same measures were greater than 200 µM and greater than 200 µM. Taken in the same sequence, the figures for `COc1ccc(C(O)/C(=C/n2ccnc2)c2ccccc2)cc1OC` (stereo not given) were greater than 537 µM and greater than 537 µM.
